Results from patent US20230192764A1, “NOVEL DOPAMINE PRECURSORS” (Yissum Research Development Company of the Hebrew …, priority 2018, published 2023).
Several values for one entry are separate records, joined by “and”; a condition that tells them apart may be missing. Identical values can stand only once.

Experiments:
[1] = system: Rotenone -induced model of Parkinson's disease (PD) in rats; assay: Rat rearing behavior (cylinder) test, rotenone model; type: in vivo, Sprague Dawley rats; settings: for Cylinder rise and touch (number of rears in 2 min): individual rat, listed as SD
Protocol: (§1) 1-SD (Rotenone + SD); 2 - SDA (Rotenone + SDA); 3 - Control (Rotenone); 4 -Naive. The experimental groups were comprised of 6 animals for treated groups (1-3) and 2 animals in naive group (4). Rotenone was administrated 3.0 mg/kg intraperitoneally (IP) once a day in the morning (days 1-9). SD 33 mg/kg and SDA 33 mg/kg were administrated intraperitoneally once a day in the afternoon (days 1-9).
(§2) Rearing behavior, rotarod and beam walk tests were performed before initiation of treatment (day 0) as well as on days 4, 8 and 10 of the experiment.
(§3) IP administration: Rotenone was administrated to groups 1-3. Rotenone was injected intraperitoneally at a dose 3.0 mg/kg once a day in the morning (days 1-9). SD and SDA was administrated both at a dose of 33 mg/kg and were injected intraperitoneally once a day in the afternoon (days 1-9). Group number 4 was untreated, and remained as a naive group.
Animals were placed in a clear glass cylinder (40 cm high and 20 cm diameter) and number of rears in 2 min was observed. Rear was considered as animals raised their hands above the shoulder and made contact with the wall of cylinder with their forelimb.

[2] = system: Rotenone -induced model of Parkinson's disease (PD) in rats; assay: Rat beam walk test, rotenone model; type: in vivo, Sprague Dawley rats; settings: for beam end time: individual rat, listed as SD
Protocol: as §1, §2, §3
Animals were gently placed on 1 m long narrow aluminum beam facing one of the ends and allowed to walk to the end of the beam.

[3] = system: human neuroblastoma cells (SH-SY5Y); assay: Viability of SH-SY5Y cells after auranofin (AuF) challenge, methylene blue staining; type: cell-based; settings: SH-SY5Y pre-treated with 5 µM AuF 30 min, washed, compound added, viability 24 h later
Protocol: Viability of cells pre-treated with 5 µM AuF for 30 min, washed and later exposed to increasing concentrations of SD-444, was determined 24 h later.
A) The anti-apoptotic activity of SD-444 was tested on human neuronal cells SH-SY5Y. The cells were challenged by auranofin (AuF) that induces cellular stress by selectively blocking the thioredoxin reductase activity.
SH-SY5Y cells were plated on 96-well plates and treated with AuF in different concentrations for 30 min. Then the cells were washed with PBS and treated as indicated. Twenty-four hours later, the cells were fixed with glutaraldehyde in final concentration of 0.5% for 10 min. Cells were washed 3 times with DDW dried overnight, and washed once with borate buffer (0.1 M, pH 8.5). The fixed cells were stained with 200 µl of 1% methylene blue dissolved in borate buffer for 1 h. After extensive washing and drying, the color was extracted with 200 µl of 0.1 M HCl for 1 h at 37° C. and absorbance was read in spectrophotometer at 630 nm.

JNK phosphorylation = assay: AuF-induced phosphorylation of JNK in SH-SY5Y cells, western blot; type: cell-based, human
Protocol: SH-SY5Y cells were treated with 10 µM AuF with or without SD-444. Phosphorylation was determined by western blot analysis. The amount of each band was quantitated by densitometry and plotted with a linear regression program normalized to total JNK.
(§4) In the assay, twenty to thirty micrograms of protein samples were loaded on 10-12% SDS-PAGE gels. The proteins were then transferred electrophoretically to nitrocellulose (Whatman, Germany). The blots were blocked by incubation for 1 h at RT in TBS-T (25 mM Tris-HCl pH 7.4, 0.9% NaCl and 0.02% Tween-20) with 4% Difco skim milk (BD, USA), and incubated over-night at 4° C. with the primary antibody: p-p38^MAPK (Thr180/Tyr182), rabbit mAb; p38, rabbit Ab.
as §4, with “1h” for “1 h”, “p-JNK^MAPK, and β-catenin.” for “p-p38^MAPK (Thr180/Tyr182), rabbit mAb; p38, rabbit Ab.”

[4] = Body weight monitoring in rotenone-treated rats; type: in vivo, Sprague Dawley rats; settings: for Weight: individual rat, listed as SD
Protocol: as §1
Animals weight was measured before initiation of treatment (day 0), on days 4,7, 9 during the experiment and on termination day 11. On day 11, animals were sacrificed and brains were harvested for further histopathological analysis.
as §3

p38MAPK phosphorylation = assay: AuF-induced phosphorylation of p38MAPK in SH-SY5Y cells, western blot; type: cell-based, human
Protocol: Cells were treated with 10 µM AuF with or without SD-444. Phosphorylation was determined by western blot analysis. The amount of each band was quantitated by densitometry and plotted with a linear regression program normalized with β catenin (b-cat).
as §4

[5] = system: Rotenone -induced model of Parkinson's disease (PD) in rats; assay: Rotarod behavior assay, rotenone model; type: in vivo, Sprague Dawley rats; settings: for R.R (rotarod): individual rat, listed as SD
Protocol: as §1, §2, §3
The test was used to evaluate motor coordination and balance. Apparatus was set to accelerate from 4 to 40 rpm in 300 s, and animals from same cage are placed in separate lanes on rod initially rotating at 4 rpm.

[6] = average n=6, day 0 (before treatment)
[7] = day 0 (before treatment), rotenone 3 mg/kg + compound 33 mg/kg IP
[8] = rats, rotenone 3.0 mg/kg IP + compound 33 mg/kg IP, days 1-9

## CC(=O)NC(CS)C(=O)NC(Cc1cccc(O)c1O)C(=O)NC(CS)C(N)=O (stereo not shown) [SD-444, Acetyle-Cys-2,3 dihydroxyphenylalanin-Cys- amide]
[1]; [6]
  Cylinder rise and touch, group average: 12.33
[1]; average n=6, day 4
  Cylinder rise and touch, group average: 14.00
[1]; average n=6, day 8
  Cylinder rise and touch, group average: 12.33
[1]; average n=6, day 10
  Cylinder rise and touch, group average: 13.00
[1]; [7]
  Cylinder rise and touch (number of rears in 2 min): 13 (3×) and 8 and 18 and 9
[1]; day 4
  Cylinder rise and touch (number of rears in 2 min): 22 and 9 and 12 and 13 (2×) and 15
[1]; day 8
  Cylinder rise and touch (number of rears in 2 min): 9 and 10 (2×) and 18 and 15 and 12
[1]; day 10
  Cylinder rise and touch (number of rears in 2 min): 16 and 13 and 17 and 9 and 15 and 8
[1]; [8]
  Cylinder test, maintaining locomotor activity in Rotenone-treated rats: very effective
[2]; [6]
  beam end time, group average: 11.33 s
[2]; average n=6, day 4
  beam end time, group average: 20.17 s
[2]; average n=6, day 8
  beam end time, group average: 22.00 s
[2]; average n=6, day 10
  beam end time, group average: 22.67 s
[2]; [7]
  beam end time: 10 sec (2×) and 19 sec and 5 sec and 8 sec and 16 sec
[2]; day 4
  beam end time: 31 s and 13 s and 15 s and 6 s and 38 s and 18 s
[2]; day 8
  beam end time: 23 s and 22 s and 18 s and 16 s and 21 s and 32 s
[2]; day 10
  beam end time: 43 s and 23 s and 17 s and 12 s and 27 s and 14 s
[2]; [8]
  Walk-beam test, reversal of rotenone induced imbalance: very effective
[3]
  neuronal cell-viability after AuF: partially restored
[3]; listed as SD
  neuronal cell-viability after AuF: increase viability
JNK phosphorylation; 10 µM AuF, western blot
  concentration at which significant reduction in JNK activation is seen: 10 µM
JNK phosphorylation; summary statement
  JNK phosphorylation (AuF-triggered): inhibit
[4]; [6]
  Weight, group average: 304.83 gr
[4]; average n=6, day 4
  Weight, group average: 299.83 gr
[4]; average n=6, day 7
  Weight, group average: 294.17 gr
[4]; average n=6, day 9
  Weight, group average: 290.17 gr
[4]; average n=6, day 11
  Weight, group average: 283.17 gr
[4]; [7]
  Weight: 300 gr (2×) and 307 gr and 294 gr and 315 gr and 313 gr
[4]; day 4, rotenone 3 mg/kg + compound 33 mg/kg IP
  Weight: 299 gr (2×) and 296 gr and 290 gr and 310 gr and 305 gr
[4]; day 7, rotenone 3 mg/kg + compound 33 mg/kg IP
  Weight: 298 gr and 281 gr and 286 gr and 305 gr and 294 gr and 301 gr
[4]; day 9, rotenone 3 mg/kg + compound 33 mg/kg IP
  Weight: 295 gr and 285 gr and 280 gr and 298 gr and 286 gr and 297 gr
[4]; day 11, rotenone 3 mg/kg + compound 33 mg/kg IP
  Weight: 290 gr (2×) and 278 gr and 284 gr and 283 gr and 274 gr
p38MAPK phosphorylation; 10 µM AuF, western blot
  concentration at which significant reduction in p38 activation is seen: 30 µM
p38MAPK phosphorylation; summary statement
  p38 phosphorylation (AuF-triggered): inhibit
[5]; [6]
  R.R (rotarod), group average: 283.33 s
[5]; average n=6, day 4
  R.R (rotarod), group average: 275.00 s
[5]; average n=6, day 8
  R.R (rotarod), group average: 256.67 s
[5]; average n=6, day 10
  R.R (rotarod), group average: 240.50 s
[5]; [7]
  R.R (rotarod): 274 s and 280 s and 288 s and 300 s and 291 s and 267 s
[5]; day 4
  R.R (rotarod): 280 sec and 268 sec and 300 sec (2×) and 247 sec and 255 sec
[5]; day 8
  R.R (rotarod): 249 s and 251 s and 282 s and 267 s and 254 s and 237 s
[5]; day 10
  R.R (rotarod): 248 s and 255 s and 258 s and 266 s and 224 s and 192 s
[5]; [8]
  rotarod test, motor dysregulation mediated by rotenone: significantly reversed
